In ChEMBL document CHEMBL1201862, “PubChem BioAssay data set” (2004):
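A five-concentration, 48-hour dose response in 96-well plates underlies each endpoint, interpolated linearly between surrounding concentrations. GI50 is the concentration that inhibits growth by half.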 Activity calls are given as the source filed them. No stated cut-off is given here; in the data, active = GI50 up to about 1.1 µM and inactive = higher.

Assays:
Assay in all cases: growth of human tumour cells (NCI), 48 h
[1] = system: 786-0
[2] = system: A498
[3] = system: ACHN
[4] = system: HCC 2998
[5] = system: HL-60
[6] = system: Hs-578T
[7] = system: IGROV-1
[8] = system: KM12
[9] = system: MDA-MB-231
[10] = system: MDA-MB-435
[11] = system: Malme-3M
[12] = system: NCI-H226
[13] = system: NCI-H23
[14] = system: OVCAR-5
[15] = system: PC-3
[16] = system: RPMI-8226
[17] = system: RXF 393
[18] = system: SF-539
[19] = system: SNB-19
[20] = system: U-251

Question: Which GI50 [1] does the source give for `O=C(SCc1cccc2ccccc12)c1ccc(Cl)cc1` here?
Answer: > 100 µM (inactive)

Question: And the GI50 [2]?
Answer: > 100 µM (inactive)

Question: And the GI50 [3]?
Answer: > 100 µM (inactive)

Question: And the GI50 [4]?
Answer: > 100 µM (inactive)

Question: What about the GI50 [5] of the same compound?
Answer: 48.5 µM (inactive)

Question: What about the GI50 [6] of the same compound?
Answer: 79.3 µM (inactive)

Question: And the GI50 [7]?
Answer: > 100 µM (inactive)

Question: And the GI50 [8]?
Answer: > 100 µM (inactive)

Question: What about the GI50 [9] of the same compound?
Answer: > 100 µM (inactive)

Question: And the GI50 [10]?
Answer: 97.1 µM (inactive)

Question: And the GI50 [11]?
Answer: 96.6 µM (inactive)

Question: What about the GI50 [12] of the same compound?
Answer: > 100 µM (inactive)

Question: What about the GI50 [13] of the same compound?
Answer: 95.3 µM (inactive)

Question: What about the GI50 [14] of the same compound?
Answer: > 100 µM (inactive)

Question: What about the GI50 [15] of the same compound?
Answer: > 100 µM (inactive)

Question: What about the GI50 [16] of the same compound?
Answer: 46.9 µM (inactive)

Question: And the GI50 [17]?
Answer: > 100 µM (inactive)

Question: What about the GI50 [18] of the same compound?
Answer: > 100 µM (inactive)

Question: What about the GI50 [19] of the same compound?
Answer: > 100 µM (inactive)

Question: What about the GI50 [20] of the same compound?
Answer: > 100 µM (inactive)

Question: Which GI50 [1] does the source give for `COC(=O)[C@H](Cc1ccccc1)NP(=O)(O)OCC1OC(n2cc(C)c(=O)[nH]c2=O)CC1N=[N+]=[N-]` (stereo not given in full) here?
Answer: > 100 µM (inactive)

Question: And the GI50 [2]?
Answer: > 100 µM (inactive)

Question: What about the GI50 [3] of the same compound?
Answer: > 100 µM (inactive)

Question: And the GI50 [4]?
Answer: > 100 µM (inactive)

Question: And the GI50 [5]?
Answer: > 100 µM (inactive)

Question: What about the GI50 [6] of the same compound?
Answer: > 100 µM (inactive)

Question: And the GI50 [7]?
Answer: > 100 µM (inactive)

Question: And the GI50 [8]?
Answer: > 100 µM (inactive)

Question: And the GI50 [9]?
Answer: > 100 µM (inactive)

Question: What about the GI50 [10] of the same compound?
Answer: > 100 µM (inactive)

Question: And the GI50 [11]?
Answer: > 100 µM (inactive)

Question: And the GI50 [12]?
Answer: > 100 µM (inactive)

Question: What about the GI50 [13] of the same compound?
Answer: > 100 µM (inactive)

Question: What about the GI50 [14] of the same compound?
Answer: > 100 µM (inactive)

Question: And the GI50 [15]?
Answer: > 100 µM (inactive)

Question: What about the GI50 [16] of the same compound?
Answer: > 100 µM (inactive)

Question: What about the GI50 [17] of the same compound?
Answer: > 100 µM (inactive)

Question: What about the GI50 [18] of the same compound?
Answer: > 100 µM (inactive)

Question: And the GI50 [19]?
Answer: > 100 µM (inactive)

Question: And the GI50 [20]?
Answer: > 100 µM (inactive)

Question: Which results are given for `CCOC(=O)c1cn(CC)c2ccc3c(c2c1=O)S(=O)(=O)C=C3`?
Answer: GI50 [1]: > 100 µM (inactive); GI50 [2]: > 100 µM (inactive); GI50 [3]: > 100 µM (inactive); GI50 [4]: > 100 µM (inactive); GI50 [5]: > 100 µM (inactive); GI50 [6]: 52.6 µM (inactive); GI50 [7]: > 100 µM (inactive); GI50 [8]: > 100 µM (inactive); GI50 [9]: > 100 µM (inactive); GI50 [10]: > 100 µM (inactive); GI50 [11]: > 100 µM (inactive); GI50 [12]: 63.7 µM (inactive); GI50 [13]: > 100 µM (inactive); GI50 [14]: > 100 µM (inactive); GI50 [15]: > 100 µM (inactive); GI50 [16]: > 100 µM (inactive); GI50 [17]: 47 µM (inactive); GI50 [18]: > 100 µM (inactive); GI50 [19]: > 100 µM (inactive); GI50 [20]: > 100 µM (inactive)

Question: With `COc1cc(Nc2nc3ccccc3nc2C(=O)O)cc(OC)c1OC` as the compound, how does the GI50 [1] read?
Answer: 75.3 µM (inactive)

Question: What about the GI50 [2] of the same compound?
Answer: 35 µM (inactive)

Question: What about the GI50 [3] of the same compound?
Answer: > 100 µM (inactive)

Question: What about the GI50 [4] of the same compound?
Answer: 69.3 µM (inactive)

Question: And the GI50 [5]?
Answer: > 100 µM (inactive)

Question: And the GI50 [6]?
Answer: 20.8 µM (inactive)

Question: And the GI50 [7]?
Answer: 78.3 µM (inactive)

Question: And the GI50 [8]?
Answer: > 100 µM (inactive)

Question: And the GI50 [9]?
Answer: 16.4 µM (inactive)

Question: And the GI50 [10]?
Answer: > 100 µM (inactive)

Question: And the GI50 [11]?
Answer: > 100 µM (inactive)

Question: What about the GI50 [12] of the same compound?
Answer: > 100 µM (inactive)

Question: And the GI50 [13]?
Answer: 75.7 µM (inactive)

Question: And the GI50 [14]?
Answer: > 100 µM (inactive)

Question: And the GI50 [15]?
Answer: > 100 µM (inactive)

Question: What about the GI50 [16] of the same compound?
Answer: 70 µM (inactive)

Question: And the GI50 [17]?
Answer: > 100 µM (inactive)

Question: What about the GI50 [18] of the same compound?
Answer: > 100 µM (inactive)

Question: And the GI50 [19]?
Answer: 70.6 µM (inactive)

Question: What about the GI50 [20] of the same compound?
Answer: > 100 µM (inactive)

Question: Which GI50 [1] does the source give for `Cn1/c(=N\c2ccc(Cl)cc2)sc2ccccc21` here?
Answer: 37.7 µM (inactive)

Question: What about the GI50 [2] of the same compound?
Answer: 55.2 µM (inactive)

Question: And the GI50 [3]?
Answer: 49.8 µM (inactive)

Question: And the GI50 [4]?
Answer: 23.7 µM (inactive)

Question: What about the GI50 [5] of the same compound?
Answer: 44.9 µM (inactive)

Question: And the GI50 [6]?
Answer: 62.4 µM (inactive)

Question: What about the GI50 [7] of the same compound?
Answer: 55.3 µM (inactive)

Question: What about the GI50 [8] of the same compound?
Answer: 21.9 µM (inactive)

Question: And the GI50 [9]?
Answer: 35.5 µM (inactive)

Question: What about the GI50 [10] of the same compound?
Answer: 42.1 µM (inactive)

Question: What about the GI50 [11] of the same compound?
Answer: 57.7 µM (inactive)

Question: And the GI50 [12]?
Answer: 46 µM (inactive)

Question: What about the GI50 [13] of the same compound?
Answer: 38.9 µM (inactive)

Question: And the GI50 [14]?
Answer: 34.8 µM (inactive)

Question: And the GI50 [15]?
Answer: 37 µM (inactive)

Question: And the GI50 [16]?
Answer: 92.3 µM (inactive)

Question: And the GI50 [17]?
Answer: 50.8 µM (inactive)

Question: What about the GI50 [18] of the same compound?
Answer: 85.1 µM (inactive)

Question: What about the GI50 [19] of the same compound?
Answer: > 100 µM (inactive)

Question: What about the GI50 [20] of the same compound?
Answer: 52.5 µM (inactive)

Question: For `C1CN(C23OC4(N5CCOCC5)C5C6CC(C7C6C4C72)C53)CCO1` (stereo not given), which GI50 [1] is on record?
Answer: > 100 µM (inactive)

Question: What about the GI50 [2] of the same compound?
Answer: > 100 µM (inactive)

Question: And the GI50 [3]?
Answer: > 31.6 µM (inactive)

Question: What about the GI50 [4] of the same compound?
Answer: > 100 µM (inactive)

Question: And the GI50 [5]?
Answer: > 100 µM (inactive)

Question: And the GI50 [6]?
Answer: > 100 µM (inactive)

Question: And the GI50 [7]?
Answer: > 100 µM (inactive)

Question: What about the GI50 [8] of the same compound?
Answer: > 100 µM (inactive)

Question: What about the GI50 [9] of the same compound?
Answer: > 100 µM (inactive)

Question: What about the GI50 [10] of the same compound?
Answer: > 100 µM (inactive)

Question: What about the GI50 [11] of the same compound?
Answer: > 100 µM (inactive)

Question: What about the GI50 [12] of the same compound?
Answer: > 100 µM (inactive)

Question: And the GI50 [13]?
Answer: > 100 µM (inactive)

Question: What about the GI50 [14] of the same compound?
Answer: > 100 µM (inactive)

Question: And the GI50 [15]?
Answer: > 100 µM (inactive)

Question: What about the GI50 [16] of the same compound?
Answer: > 100 µM (inactive)

Question: And the GI50 [17]?
Answer: > 100 µM (inactive)

Question: What about the GI50 [18] of the same compound?
Answer: > 100 µM (inactive)

Question: What about the GI50 [19] of the same compound?
Answer: > 100 µM (inactive)

Question: What about the GI50 [20] of the same compound?
Answer: > 100 µM (inactive)

Question: With `CCOC(=O)c1[nH]c(Br)c(-c2ccc(Br)cc2)c1Br` as the compound, how does the GI50 [1] read?
Answer: 0.445 µM (active)

Question: And the GI50 [2]?
Answer: 1.61 µM (inactive)

Question: And the GI50 [3]?
Answer: 1.13 µM (inactive)

Question: And the GI50 [4]?
Answer: 5.79 µM (inactive)

Question: What about the GI50 [5] of the same compound?
Answer: 2.09 µM (inactive)

Question: What about the GI50 [6] of the same compound?
Answer: 0.395 µM (active)

Question: And the GI50 [7]?
Answer: 0.601 µM (active)

Question: And the GI50 [8]?
Answer: 0.459 µM (active)

Question: What about the GI50 [9] of the same compound?
Answer: 1.2 µM (inactive)

Question: What about the GI50 [10] of the same compound?
Answer: 0.186 µM (active)

Question: What about the GI50 [11] of the same compound?
Answer: 0.38 µM (active)

Question: And the GI50 [12]?
Answer: 1.31 µM (inactive)

Question: What about the GI50 [13] of the same compound?
Answer: 2.14 µM (inactive)

Question: And the GI50 [14]?
Answer: 2.5 µM (inactive)

Question: And the GI50 [15]?
Answer: 0.705 µM (active)

Question: And the GI50 [16]?
Answer: 6.73 µM (inactive)

Question: And the GI50 [17]?
Answer: 1.23 µM (inactive)

Question: And the GI50 [18]?
Answer: 0.441 µM (active)

Question: And the GI50 [19]?
Answer: 1.3 µM (inactive)

Question: What about the GI50 [20] of the same compound?
Answer: 0.454 µM (active)
